The conditions of data set [1]: cited from earlier work.
Data set [2] in a line: Taurolidine release from fibrin sealant matrix into PBS supernatant over 7 days. It is filed as physicochemical. Particulars: irrespective of initial taurolidine concentration, 37° C. The protocol: Different concentrations of taurolidine were homogenously suspended in the two components of the fibrin sealant. The two components were then mixed in wells of a 24-multiwell plate to prepare matrixes with identical total volumes of 400 μl per well containing final taurolidine concentrations of 10, 20, 40 and 80 mg/ml. The resulting thickness of the matrix was 2 mm ±0.4 mm. In addition, matrices with volumes of 400 μl and 800 μl containing 10 mg/ml or 40 mg/ml of taurolidine were prepared to investigate the effect of matrix size on taurolidine release. […] Matrices of identical volume and thickness without taurolidine served as controls. Supernatants of 400 μl phosphate-buffered saline (PBS) were added to each well after solidification. The multiwell plates were incubated at 37° C. The supernatants were pipetted off at 24-hour intervals over a period of 7 days and replaced by identical amounts of fresh PBS.

Data set [3] has as its system glial tumor cell lines LN18, LN229, U87MG, and ex vivo cells from a freshly isolated glioblastoma. The experiment in a line: Crystal violet assay of tumor cells incubated with taurolidine released from the matrices. It is filed as cell-based. The protocol:
To determine whether the antineoplastic activity of taurolidine was affected by embedding in the matrix, the glial tumor cell lines LN18, LN229, U87MG, and ex vivo cells from a freshly isolated glioblastoma were incubated with taurolidine released from the matrices at different periods.
The LN18, LN229, and U87MG tumor cells and ex vivo cells from a glioblastoma were seeded in […] plastic cell culture flasks until a cell confluency of 80% was reached. The resulting cell suspensions were centrifuged at 1200 rpm for 5 min and then diluted to yield cell suspensions containing 5×10^4 cells per ml. Aliquots of 200 μl of the cell suspensions were pipetted into the wells of a 96-multiwell plate.
After 12 hours when the cells were adherent the medium was removed and replaced by fresh medium. The cells were incubated for 24 hours and the taurolidine solution released at different time intervals from the matrices loaded with different taurolidine concentrations. Tumor cells incubated with the same volume of supernatant from fibrin sealant matrix without taurolidine were used as negative controls. Identically treated cells to which Fas-ligand at a concentration of 25% was added served as positive controls.
After incubation for 24 hours, the supernatants were removed and 100 μl of crystal violet staining solution (0.5% crystal violet in 19.5% methanol and 80% distilled water) added. The solution was removed after 10 min and residual dye rinsed off with tap water. The plates were then left to air-dry for 12 hours followed by counting in a microplate counter at 540 nm.

Data set [4] is described as follows: Long-term release kinetics of taurolidine from fibrin sealant matrix over 14 days. Particulars: for percentage of taurolidine released from the matrix: irrespective of loading concentrations. It is filed as physicochemical. The protocol: The long-term release kinetics of taurolidine was investigated by homogenously suspending different concentrations of taurolidine in the two components of the fibrin sealant in such a way that final concentrations (mg/ml) of 10, 40 and 80 mg/ml were achieved per 400 μl of fresh PBS at 24-hour intervals over a period of 14 days. The supernatants from the wells containing identical taurolidine concentrations were pooled. The taurolidine concentrations in the supernatants were determined.

On to `O=S1(=O)CCN(CN2CCS(=O)(=O)NC2)CN1` [Taurolidine, Bis-(1,1-dioxoperhydro-1,2,4-thiadiazinyl-4)methane], for which the “water soluble up to” value in data set [1] is listed as “up to 2%”. Further, the “percentage of total taurolidine released from the matrix” value in data set [2] (within 6 days) was 75.2±6.64%; in data set [2] (within the first 2 days) it was 54.7±1.44%. For the same compound, in data set [3] (taurolidine released from matrices, 24 hours incubation), the “proliferation of tumor cell lines and ex vivo glioblastoma cells” value was “inhibited in an concentration-dependent manner”. In addition, the “reduction of cell counts” value in data set [3] (taurolidine released on day 3, loading concentration 100 mg/ml) was “at least 60%”. The “effect on tumor cell proliferation” value in data set [3] (taurolidine released on day 13 from TFM, initial loading concentration 10 mg/ml) is “no further effects on tumor cell proliferation”. Further, the “percentage of taurolidine released from the matrix” value in data set [4] (after 10 days) was 98.93%±0.33; in data set [4] (after 14 days), 99.99%±0.02. The “period over which antineoplastically effective amounts of taurolidine were released” value in data set [4] (loading concentrations of 25 mg/ml or above) came out at 14 days. In data set [4] (loading concentrations of 50 mg/ml or higher, day 14), the “taurolidine released on day 14” value is recorded as “over 100 μg/ml”.
